What was measured:
STING = settings: background; cited from earlier work
[1] = molecular target: T1, murine STING CTD (mSTING-CTD; CDN binding domain SEQ ID NO:33) (Mus musculus, UniProt Q3TBT3); assay: DRaCALA radioactive nucleotide binding assay, STING-CTD; settings: 500 μM unlabeled nucleotide, ~1 nM [32P] 2′3′-cGAMP
T1 construct: 6xHis; made in house; host or cells: E. coli Rosetta (DE3)pLysS
T1 sequence (Q3TBT3 134-378 limits assumed): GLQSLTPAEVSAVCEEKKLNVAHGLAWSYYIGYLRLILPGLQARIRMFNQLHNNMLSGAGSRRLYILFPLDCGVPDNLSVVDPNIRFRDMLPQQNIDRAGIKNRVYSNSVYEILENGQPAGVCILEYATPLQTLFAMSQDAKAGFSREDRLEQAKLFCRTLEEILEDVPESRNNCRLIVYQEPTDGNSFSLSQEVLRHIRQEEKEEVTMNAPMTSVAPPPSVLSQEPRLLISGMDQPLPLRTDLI
Source text: (§1) FIGS. 1A-1H. BioSTING Design and Optimization. (1A) Schematic representation of full-length STING (top) and BioSTING with additional GGSGG linker between mTFP and STING-CTD (bottom). Abbreviations are defined as follows: TM (transmembrane region), DD (dimerization domain), CBD (CDN binding domain), and CTT (C-terminal tail). (1B) Overlay and structural alignment of human STING CTD in apo (“blue”) and c-di-GMP bound (“gray”) states (PDB 4F5E and 4F5D, respectively). […] The N and C-terminal helices of the CTD are highlighted with the terminal residues in red and their associated displacement following ligand binding labeled in angstroms. (1C) Model of the FRET increase which occurs upon CDN binding. Generated with Biorender.com. […] In all panels, individual data points of n=2 biological replicates are shown.
FIGS. 6A and 6B. BioSTING development and characterization.
(§2) Finally, the dissociation kinetics were monitored by determining the rate that cold nucleotide could compete off bound radioactive nucleotide. […] [^32P] […] Binding assays were performed in binding buffer [40 mM Tris pH 7.5, 100 mM NaCl, 20 mM MgCl2] at room temperature.

BioSTING = molecular target: T2, BioSTING (Mus musculus, UniProt Q3TBT3); assay: DRaCALA binding specificity: excess unlabeled nucleotides competing with [32P] 2′3′-cGAMP; set-up: species or system murine; settings: 500 μM excess unlabeled nucleotide, ~1 nM [32P] 2′3′-cGAMP
T2 construct: made in house; host or cells: E. coli Rosetta (DE3)pLysS
T2 sequence (Q3TBT3 with tags, fused parts or gaps): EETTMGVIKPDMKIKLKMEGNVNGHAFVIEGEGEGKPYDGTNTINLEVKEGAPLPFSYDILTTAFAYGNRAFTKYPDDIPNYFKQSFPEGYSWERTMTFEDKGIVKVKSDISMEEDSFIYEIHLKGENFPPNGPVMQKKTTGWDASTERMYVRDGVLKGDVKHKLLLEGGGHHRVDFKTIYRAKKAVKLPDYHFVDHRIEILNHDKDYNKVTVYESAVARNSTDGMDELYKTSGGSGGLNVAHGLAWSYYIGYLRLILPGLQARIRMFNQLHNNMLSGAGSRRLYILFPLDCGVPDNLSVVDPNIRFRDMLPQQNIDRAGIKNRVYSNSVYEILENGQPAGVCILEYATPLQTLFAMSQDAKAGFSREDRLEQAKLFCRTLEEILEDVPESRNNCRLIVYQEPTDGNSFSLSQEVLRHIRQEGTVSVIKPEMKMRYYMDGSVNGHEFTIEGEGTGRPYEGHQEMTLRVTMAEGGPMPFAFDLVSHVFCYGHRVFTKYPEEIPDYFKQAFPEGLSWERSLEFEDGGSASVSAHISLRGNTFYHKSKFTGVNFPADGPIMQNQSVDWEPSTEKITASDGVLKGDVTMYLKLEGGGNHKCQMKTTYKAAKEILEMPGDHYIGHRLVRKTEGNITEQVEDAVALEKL

[2] = molecular target: T3, BioSTING (mTFP-GGSGG-murine STING CTD (L152-E335)-mKO2 FRET fusion; SEQ ID NO:34, CDN binding domain SEQ ID NO:33) (Mus musculus, UniProt Q3TBT3); assay: DRaCALA radioactive nucleotide binding assay, BioSTING; settings: 500 μM unlabeled nucleotide, ~1 nM [32P] 2′3′-cGAMP
T3 construct: His tag (inferred from Ni-NTA purification and the pET15b vector); made in house; host or cells: E. coli Rosetta (DE3)pLysS
T3 sequence (Q3TBT3 with tags, fused parts or gaps): T2 sequence (Q3TBT3 with tags, fused parts or gaps)
Source text: as §1, §2

cGAS = settings: literature value (Pfizer); read-out: reported IC50; cited from earlier work
[3] = molecular target: T4, cGAS (recombinant SUMO-mcGAS) (Mus musculus, UniProt Q8C6L5); assay: cGAS activity assay measuring 2′3′-cGAMP production using BioSTING; format: biochemical; settings: fixed cGAS; 250 μM ATP, 250 μM GTP, 50 ng ISD; 37° C.
T4 construct: product read by BioSTING
Experimental: FIGS. 2A-2F. Real time measurement of CDN synthesis and determination of CDN levels from cellular extracts. […]. In panels (2B)-(2D) and (2F), data are presented as mean±s.d. of n=3 (2B, 2F) or n=8 (2C, 2D) biological replicates.
BioSTING FRET assays are carried out in a 96-well format using a fluorescent plate reader making it amenable to in vitro high throughput screening efforts (FIG. 7B). […]. In addition to screening for modulators of CDN synthase activity, BioSTING could also potentially be used to screen directly for STING agonists and antagonists.
Enzyme assays were initiated by the addition of 1 mM ATP, 1 mM GTP and 1 μg ISD (FIGS. 2B, 7A, and 7B) or by the addition of 250 μM ATP, 250 μM GTP, and 50 ng ISD (FIGS. 2C, 2D, and 7C).

[4] = molecular target: T5, CDA5 variant Y34A (parent CDA5, Lmo0553 Bateman domain) (Listeria monocytogenes, UniProt Q8Y9H5, Y34A); assay: In vitro FRET measurement, CDA5 Y34A; settings: increasing concentrations of c-di-AMP
Experimental: (§3) It was hypothesized that by replacing the stabilizing tyrosine ring with an alanine (Y34A), c-di-AMP binding would be minimized in a manner unlikely to disrupt protein stability. […] Next, increasing concentrations of c-di-AMP were added to purified CDA5 and Y34A CDA5 and analyzed by plate reader assay for FRET response.

[5] = molecular target: Listeria monocytogenes Lmo0553, full length (Listeria monocytogenes, UniProt Q8Y9H5); assay: DRaCALA radioactive nucleotide binding assay, full length Lmo0553
[6] = molecular target: T6, CDA5 (eCFP-Lmo0553 Bateman domain (truncated at N-127)-eYFP FRET fusion; SEQ ID NO:36, Bateman domain SEQ ID NO:35) (Listeria monocytogenes, UniProt Q8Y9H5); assay: DRaCALA radioactive nucleotide binding assay, CDA5
[7] = molecular target: T5, CDA5 variant Y34A (parent CDA5, Lmo0553 Bateman domain); assay: DRaCALA binding assay, CDA5 Y34A
Experimental: as §3

[8] = molecular target: T6, CDA5 (eCFP-Lmo0553 Bateman domain (truncated at N-127)-eYFP FRET fusion; SEQ ID NO:36, Bateman domain SEQ ID NO:35); assay: In vitro FRET measurement, CDA5
[9] = molecular target: T7, full length Lmo0553 fused to eCFP (N terminus) and eYFP (C terminus) (Listeria monocytogenes, UniProt Q8Y9H5); assay: FRET response, full length Lmo0553 fusion; format: biochemical
T7 construct: recombinant, purified
Source text: To leverage these structural rearrangements, the FRET pair eCFP and eYFP were respectively fused to the N and C termini of full length Lmo0553. […] Additional engineering may have allowed for the generation of a FRET biosensor utilizing full length Lmo0553, but without a response to optimize, these efforts would have been arduous and potentially unsuccessful.

[10] = excess (500 μM) unlabeled c-di-AMP, DRaCALA

T4 sequence (Q8C6L5 whole entry): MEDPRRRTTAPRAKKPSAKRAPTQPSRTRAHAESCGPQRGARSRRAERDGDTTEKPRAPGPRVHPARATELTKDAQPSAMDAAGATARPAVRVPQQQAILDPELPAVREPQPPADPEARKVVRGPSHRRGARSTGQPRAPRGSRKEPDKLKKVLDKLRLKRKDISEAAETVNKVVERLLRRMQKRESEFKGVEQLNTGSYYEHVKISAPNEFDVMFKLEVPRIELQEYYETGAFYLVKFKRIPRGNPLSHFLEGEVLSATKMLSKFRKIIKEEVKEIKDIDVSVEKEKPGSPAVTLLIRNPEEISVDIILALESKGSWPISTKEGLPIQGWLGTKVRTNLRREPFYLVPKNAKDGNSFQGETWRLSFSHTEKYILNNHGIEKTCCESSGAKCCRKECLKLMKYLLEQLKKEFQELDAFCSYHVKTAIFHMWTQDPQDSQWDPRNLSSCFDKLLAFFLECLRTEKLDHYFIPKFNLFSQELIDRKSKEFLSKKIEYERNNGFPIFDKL

Nc1nc2c(ncn2[C@@H]2O[C@@H]3COP(=O)(O)O[C@H]4[C@@H](O)[C@H](n5cnc6c(=O)[nH]c(N)nc65)O[C@@H]4COP(=O)(O)O[C@H]3[C@H]2O)c(=O)[nH]1 [c-di-GMP, 3′,3′-cyclic di-GMP]
affinity for STING relative to 2′3′-cGAMP (STING): markedly reduced affinities

Nc1nc2c(ncn2[C@@H]2O[C@@H]3COP(=O)(O)O[C@H]3[C@H]2O)c(=O)[nH]1 [cGMP]
competition of bound [32P] 2′3′-cGAMP by unlabeled nucleotide [1]: not ATP, GTP, cAMP, or cGMP could compete off | competing off bound [32P] 2′3′-cGAMP (BioSTING): not | competition of bound [32P] 2′3′-cGAMP by unlabeled nucleotide [2]: not ATP, GTP, cAMP, or cGMP could compete off

Nc1ncnc2c1ncn2[C@@H]1O[C@H](COP(=O)(O)OP(=O)(O)OP(=O)(O)O)[C@@H](O)[C@H]1O [ATP]
competition of bound [32P] 2′3′-cGAMP by unlabeled nucleotide [1]: not ATP, GTP, cAMP, or cGMP could compete off | competing off bound [32P] 2′3′-cGAMP (BioSTING): not | competition of bound [32P] 2′3′-cGAMP by unlabeled nucleotide [2]: not ATP, GTP, cAMP, or cGMP could compete off

Nc1nc2c(ncn2[C@@H]2O[C@H](COP(=O)(O)OP(=O)(O)OP(=O)(O)O)[C@@H](O)[C@H]2O)c(=O)[nH]1 [GTP]
competition of bound [32P] 2′3′-cGAMP by unlabeled nucleotide [1]: not ATP, GTP, cAMP, or cGMP could compete off | competing off bound [32P] 2′3′-cGAMP (BioSTING): not | competition of bound [32P] 2′3′-cGAMP by unlabeled nucleotide [2]: not ATP, GTP, cAMP, or cGMP could compete off

O=C(NC1CCCCC1C(=O)O)c1cnn2c(O)cc(-c3ccccc3)nc12 (centres unmarked) [PF-06928215]
IC50 (cGAS): 5 µM | IC50 [3]: ~12 µM

Nc1nc2c(ncn2[C@@H]2O[C@@H]3COP(=O)(O)O[C@H]4[C@@H](O)[C@H](n5cnc6c(N)ncnc65)O[C@@H]4COP(=O)(O)O[C@H]3[C@H]2O)c(=O)[nH]1 [3′3′-cGAMP, 3′,3′-cyclic GMP AMP]
affinity for STING relative to 2′3′-cGAMP (STING): markedly reduced affinities

Nc1ncnc2c1ncn2[C@@H]1O[C@@H]2COP(=O)(O)O[C@H]3[C@@H](O)[C@H](n4cnc5c(N)ncnc54)O[C@@H]3COP(=O)(O)O[C@H]2[C@H]1O [3′3′-c-di-AMP, 3′3′-cyclic di-adenosine monophosphate]
FRET increase upon the addition of c-di-AMP [4]: CDA5 but not Y34A CDA5 produced a robust FRET increase | affinity for STING relative to 2′3′-cGAMP (STING): markedly reduced affinities | Kd [5]: 4.83 µM | competition of bound [32P] c-di-AMP by unlabeled nucleotide [5]: only unlabeled c-di-AMP | koff (time for competition by unlabeled c-di-AMP) [5, 10]: completely within two seconds | Kd [6]: 5.87 µM | competition of bound [32P] c-di-AMP by unlabeled nucleotide [6]: only unlabeled c-di-AMP | koff (time for competition by unlabeled c-di-AMP) [6, 10]: completely within two seconds | c-di-AMP binding [7]: c-di-AMP bound to CDA5 but not the Y34A CDA5 point mutant control | EC50 [8]: 0.38 µM | kon (less than the sampling limit) ([8]; FRET responses stable immediately upon addition of c-di-AMP): < 10 s | Emax ([8]; read-out: FRET increase): 23% | FRET response upon the addition of c-di-AMP [9]: no FRET response was observed

Reference: patent US20210285031A1, “FRET BASED PROTEIN BIOSENSOR FOR DETECTION OF CYCLIC DINUCLEOTIDES” (University of Washington, priority 2020, published 2021)
